In ChEMBL document CHEMBL5465560, “Selectivity Literature for EUbOPEN Chemogenomic Library” (2024) one finds % of inhibition and % of control data, which are given here for nine compounds.

Assay [1] relates to ALK tyrosine kinase receptor (Homo sapiens), Q9UM73 [F1174L]. Nature of the assay: (§1) Selectivity interaction (LanthaScreen Eu Kinase Binding Assay) EUB0001632a ALK. As to conditions: at 10 µM. Background: TR-FRET usually uses a lanthanide donor and a delayed reading to cut background.
Assay [2] relates to ALK tyrosine kinase receptor (Homo sapiens), Q9UM73 [R1275Q]. The description is as §1. As to conditions: at 10 µM.
The subject of assay [3] is ALK tyrosine kinase receptor (Homo sapiens), Q9UM73 [L1196M]. The description is as §1. As to conditions: at 10 µM.
Assay [4] deals with ALK tyrosine kinase receptor (Homo sapiens), Q9UM73 [C1156Y]. The description is as §1. As to conditions: at 10 µM.
Assay [5] concerns the target Serine/threonine-protein kinase 38-like (Homo sapiens) (UniProt Q9Y2H1). In words: Selectivity interaction (Ambit KINOMEscan and KiNATiv profiling in Jurkat cells) EUB0000090b STK38L. Format: cell-based. As to conditions: at 1 µM.
Assay [6] has as its target Mitogen-activated protein kinase 4 (Homo sapiens) (UniProt P31152). Particulars: at 10 µM.
Assay [7] concerns the target Tyrosine-protein kinase Srms (Homo sapiens) (UniProt Q9H3Y6). Nature of the assay: Selectivity interaction (KinomeScan (DiscoverX)) EUB0000655a SRMS. Particulars: at 10 µM.
Assay [8] concerns the target Tyrosine-protein kinase Fes/Fps (Homo sapiens) (UniProt P07332). Nature of the assay: Selectivity interaction (KinomeScan (DiscoverX)) EUB0000655a FES. Particulars: at 10 µM.
Assay [9] has as its target Serine/threonine-protein kinase 25 (Homo sapiens) (UniProt O00506). In words: Selectivity interaction (KinomeScan (DiscoverX)) EUB0001619a STK25. Particulars: at 1 µM.
The target of assay [10] is T1, Interleukin-1 receptor-associated kinase 4 (Homo sapiens) (UniProt Q9NWZ3).
T1 sequence (whole entry): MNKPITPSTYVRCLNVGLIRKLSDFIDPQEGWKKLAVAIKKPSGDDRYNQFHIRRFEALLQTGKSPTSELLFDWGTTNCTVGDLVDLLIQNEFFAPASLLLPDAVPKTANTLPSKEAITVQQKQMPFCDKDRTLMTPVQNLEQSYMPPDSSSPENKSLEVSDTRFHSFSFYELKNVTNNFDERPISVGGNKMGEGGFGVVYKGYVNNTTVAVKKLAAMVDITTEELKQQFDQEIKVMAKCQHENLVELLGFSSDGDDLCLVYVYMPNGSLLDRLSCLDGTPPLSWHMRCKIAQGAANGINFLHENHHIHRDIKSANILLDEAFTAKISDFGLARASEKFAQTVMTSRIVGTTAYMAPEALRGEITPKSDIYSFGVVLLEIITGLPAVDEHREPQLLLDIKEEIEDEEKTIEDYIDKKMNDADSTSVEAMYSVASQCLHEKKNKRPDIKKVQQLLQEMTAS
In words: Selectivity interaction (ActivX KiNativ screen (ex vivo kinase selectivity in human PBMCs)) EUB0001619a IRAK4. Format: cell-based. As to conditions: PBMC, at 1 µM.

Assay [11] concerns the target Death-associated protein kinase 1 (Homo sapiens, UniProt P53355). In words: Selectivity interaction (Kinase panel (Invitrogen)) EUB0000639a DAPK1. Particulars: at 200 nM.
The target in assay [12] is Homeodomain-interacting protein kinase 2 (Homo sapiens, UniProt Q9H2X6). In words: Selectivity interaction (KinomeScan (DiscoverX)) EUB0000695a HIPK2. As to conditions: at 100 nM.
The target in assay [13] is Cannabinoid receptor 1 (Homo sapiens, UniProt P21554). In words: Selectivity interaction (Eurofins CEREP Diversity Profile (receptors and ion channels)) EUB0000279b CNR1. As to conditions: at 10 µM.
Assay [14] has as its system Epidermal growth factor receptor (Homo sapiens), P00533 [UNDEFINED MUTATION]. In words: Selectivity interaction (KinomeScan (DiscoverX)) EUB0000045b EGFR. Particulars: at 10 µM.
Assay [15] addresses T2, Serine/threonine-protein kinase D3 (Homo sapiens) (UniProt O94806).
T2 sequence (whole entry): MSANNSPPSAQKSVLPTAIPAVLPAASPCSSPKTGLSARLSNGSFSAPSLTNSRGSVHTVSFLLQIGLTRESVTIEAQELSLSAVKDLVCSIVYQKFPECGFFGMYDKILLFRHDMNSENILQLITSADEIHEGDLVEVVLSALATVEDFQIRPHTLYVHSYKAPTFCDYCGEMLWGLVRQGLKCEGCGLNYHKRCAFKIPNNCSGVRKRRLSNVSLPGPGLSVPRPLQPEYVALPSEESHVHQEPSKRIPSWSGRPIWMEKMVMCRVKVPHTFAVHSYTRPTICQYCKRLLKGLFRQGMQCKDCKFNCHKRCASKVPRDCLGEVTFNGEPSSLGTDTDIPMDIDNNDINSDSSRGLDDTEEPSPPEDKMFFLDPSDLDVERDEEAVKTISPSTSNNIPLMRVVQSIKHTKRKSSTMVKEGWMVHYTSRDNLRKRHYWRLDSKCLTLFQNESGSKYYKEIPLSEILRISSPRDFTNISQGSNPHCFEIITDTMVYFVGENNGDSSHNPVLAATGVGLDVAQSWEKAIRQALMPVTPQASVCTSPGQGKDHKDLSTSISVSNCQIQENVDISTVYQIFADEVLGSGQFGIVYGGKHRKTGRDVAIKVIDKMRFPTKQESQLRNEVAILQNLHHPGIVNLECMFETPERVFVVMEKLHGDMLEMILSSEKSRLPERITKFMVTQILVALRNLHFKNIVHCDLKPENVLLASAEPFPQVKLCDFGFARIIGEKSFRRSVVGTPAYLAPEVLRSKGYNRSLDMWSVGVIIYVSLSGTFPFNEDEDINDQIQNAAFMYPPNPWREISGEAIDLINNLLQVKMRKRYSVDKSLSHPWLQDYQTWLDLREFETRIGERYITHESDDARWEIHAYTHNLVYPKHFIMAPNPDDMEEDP
Nature of the assay: Selectivity interaction (KinomeScan (DiscoverX)) EUB0000045b PRKD3.

Structures are written as SMILES.

ALK tyrosine kinase receptor (Homo sapiens), Q9UM73 [F1174L], sequence (Q9UM73 whole entry F1174L): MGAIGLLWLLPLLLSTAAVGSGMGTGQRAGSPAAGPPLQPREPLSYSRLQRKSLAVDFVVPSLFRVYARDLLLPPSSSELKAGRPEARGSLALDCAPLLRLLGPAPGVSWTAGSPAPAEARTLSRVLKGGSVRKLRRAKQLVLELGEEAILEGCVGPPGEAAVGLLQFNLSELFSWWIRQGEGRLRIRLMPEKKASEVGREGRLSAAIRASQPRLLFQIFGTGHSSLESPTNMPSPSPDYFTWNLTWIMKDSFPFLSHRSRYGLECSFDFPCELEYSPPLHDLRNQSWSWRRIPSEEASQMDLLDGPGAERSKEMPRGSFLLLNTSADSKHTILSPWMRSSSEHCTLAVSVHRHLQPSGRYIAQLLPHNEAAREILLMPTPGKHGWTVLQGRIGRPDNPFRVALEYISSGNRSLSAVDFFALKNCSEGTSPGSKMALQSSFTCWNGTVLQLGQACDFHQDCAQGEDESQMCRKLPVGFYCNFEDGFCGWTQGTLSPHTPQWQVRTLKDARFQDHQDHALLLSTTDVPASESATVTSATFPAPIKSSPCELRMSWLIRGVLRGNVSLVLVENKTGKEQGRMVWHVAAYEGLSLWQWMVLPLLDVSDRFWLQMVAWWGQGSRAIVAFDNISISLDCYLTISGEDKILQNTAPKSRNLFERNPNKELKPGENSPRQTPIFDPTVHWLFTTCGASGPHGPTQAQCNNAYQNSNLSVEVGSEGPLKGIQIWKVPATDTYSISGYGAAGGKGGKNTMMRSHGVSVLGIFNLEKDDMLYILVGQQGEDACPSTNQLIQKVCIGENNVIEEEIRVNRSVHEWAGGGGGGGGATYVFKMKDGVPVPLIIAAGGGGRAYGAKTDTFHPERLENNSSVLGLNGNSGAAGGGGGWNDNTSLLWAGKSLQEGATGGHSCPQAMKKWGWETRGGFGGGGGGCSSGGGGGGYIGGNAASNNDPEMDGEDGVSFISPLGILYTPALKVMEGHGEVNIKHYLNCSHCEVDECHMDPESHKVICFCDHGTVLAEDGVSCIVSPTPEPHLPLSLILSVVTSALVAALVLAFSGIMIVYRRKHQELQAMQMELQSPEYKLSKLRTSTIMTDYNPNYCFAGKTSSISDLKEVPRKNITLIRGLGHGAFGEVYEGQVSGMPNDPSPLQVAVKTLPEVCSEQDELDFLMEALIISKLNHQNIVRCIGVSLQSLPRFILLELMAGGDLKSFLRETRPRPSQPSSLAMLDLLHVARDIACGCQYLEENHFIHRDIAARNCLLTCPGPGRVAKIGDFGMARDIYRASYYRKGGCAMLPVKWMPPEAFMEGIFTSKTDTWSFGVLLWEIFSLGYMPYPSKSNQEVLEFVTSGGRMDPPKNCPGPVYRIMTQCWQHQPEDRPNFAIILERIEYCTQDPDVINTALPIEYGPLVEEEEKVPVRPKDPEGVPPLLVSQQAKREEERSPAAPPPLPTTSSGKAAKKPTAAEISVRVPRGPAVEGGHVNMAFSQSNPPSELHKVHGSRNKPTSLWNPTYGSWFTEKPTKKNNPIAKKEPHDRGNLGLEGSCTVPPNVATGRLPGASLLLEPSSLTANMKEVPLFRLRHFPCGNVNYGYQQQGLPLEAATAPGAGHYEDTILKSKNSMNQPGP
Serine/threonine-protein kinase 38-like (Homo sapiens), sequence (Q9Y2H1 2-464 limits assumed): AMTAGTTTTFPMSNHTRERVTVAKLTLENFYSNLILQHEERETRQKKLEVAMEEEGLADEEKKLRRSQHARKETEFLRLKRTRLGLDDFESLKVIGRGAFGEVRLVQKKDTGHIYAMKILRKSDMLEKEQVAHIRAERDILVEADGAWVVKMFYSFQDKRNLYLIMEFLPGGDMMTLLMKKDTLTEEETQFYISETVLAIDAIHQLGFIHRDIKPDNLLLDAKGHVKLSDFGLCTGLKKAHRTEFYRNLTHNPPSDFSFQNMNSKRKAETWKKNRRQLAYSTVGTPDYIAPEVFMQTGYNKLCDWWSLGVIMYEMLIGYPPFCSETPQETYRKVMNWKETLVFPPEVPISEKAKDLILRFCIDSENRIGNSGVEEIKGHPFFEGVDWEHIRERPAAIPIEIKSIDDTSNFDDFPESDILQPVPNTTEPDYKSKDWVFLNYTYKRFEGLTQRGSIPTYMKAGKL
Serine/threonine-protein kinase 25 (Homo sapiens), sequence (O00506 whole entry, looked up): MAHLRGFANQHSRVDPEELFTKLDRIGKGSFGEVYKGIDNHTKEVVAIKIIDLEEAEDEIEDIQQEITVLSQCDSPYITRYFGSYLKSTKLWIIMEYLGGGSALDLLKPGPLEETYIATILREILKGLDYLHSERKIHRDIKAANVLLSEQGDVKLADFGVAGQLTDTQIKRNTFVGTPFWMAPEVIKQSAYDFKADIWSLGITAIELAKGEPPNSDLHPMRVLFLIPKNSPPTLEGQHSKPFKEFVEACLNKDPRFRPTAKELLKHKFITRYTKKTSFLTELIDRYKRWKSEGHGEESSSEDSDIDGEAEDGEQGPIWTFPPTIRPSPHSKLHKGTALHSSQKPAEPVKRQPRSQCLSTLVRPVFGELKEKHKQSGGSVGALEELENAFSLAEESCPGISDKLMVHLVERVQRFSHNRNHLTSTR
Mitogen-activated protein kinase 4 (Homo sapiens), sequence (P31152 whole entry): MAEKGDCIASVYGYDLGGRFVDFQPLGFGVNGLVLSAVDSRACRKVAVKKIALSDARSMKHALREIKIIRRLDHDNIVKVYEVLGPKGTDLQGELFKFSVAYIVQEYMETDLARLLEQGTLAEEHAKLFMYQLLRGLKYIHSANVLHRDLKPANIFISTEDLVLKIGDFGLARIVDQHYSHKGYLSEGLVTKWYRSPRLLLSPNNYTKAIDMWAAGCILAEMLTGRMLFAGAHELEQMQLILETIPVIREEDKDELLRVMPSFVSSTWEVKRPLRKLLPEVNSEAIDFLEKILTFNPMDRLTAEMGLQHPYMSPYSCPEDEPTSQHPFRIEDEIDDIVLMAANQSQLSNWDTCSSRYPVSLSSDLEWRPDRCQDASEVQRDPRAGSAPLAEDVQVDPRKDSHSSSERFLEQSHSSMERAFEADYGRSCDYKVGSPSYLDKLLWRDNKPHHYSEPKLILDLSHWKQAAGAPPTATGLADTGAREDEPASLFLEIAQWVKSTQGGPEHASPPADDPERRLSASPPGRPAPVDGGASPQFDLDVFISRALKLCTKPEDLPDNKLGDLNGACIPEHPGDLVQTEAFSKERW
Cannabinoid receptor 1, sequence (P21554 whole entry): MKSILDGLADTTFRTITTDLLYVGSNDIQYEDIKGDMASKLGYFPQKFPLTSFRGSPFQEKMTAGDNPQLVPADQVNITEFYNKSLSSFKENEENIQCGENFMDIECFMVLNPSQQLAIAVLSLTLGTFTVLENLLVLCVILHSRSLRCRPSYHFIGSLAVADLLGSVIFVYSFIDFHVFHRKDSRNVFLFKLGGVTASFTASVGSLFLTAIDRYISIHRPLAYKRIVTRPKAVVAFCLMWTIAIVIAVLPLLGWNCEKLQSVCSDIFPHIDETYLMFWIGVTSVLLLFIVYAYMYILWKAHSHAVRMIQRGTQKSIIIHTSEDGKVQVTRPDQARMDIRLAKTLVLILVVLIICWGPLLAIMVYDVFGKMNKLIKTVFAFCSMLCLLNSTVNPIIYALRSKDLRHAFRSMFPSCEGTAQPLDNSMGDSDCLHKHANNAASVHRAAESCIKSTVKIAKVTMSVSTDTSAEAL
Death-associated protein kinase 1, sequence (P53355 whole entry, looked up): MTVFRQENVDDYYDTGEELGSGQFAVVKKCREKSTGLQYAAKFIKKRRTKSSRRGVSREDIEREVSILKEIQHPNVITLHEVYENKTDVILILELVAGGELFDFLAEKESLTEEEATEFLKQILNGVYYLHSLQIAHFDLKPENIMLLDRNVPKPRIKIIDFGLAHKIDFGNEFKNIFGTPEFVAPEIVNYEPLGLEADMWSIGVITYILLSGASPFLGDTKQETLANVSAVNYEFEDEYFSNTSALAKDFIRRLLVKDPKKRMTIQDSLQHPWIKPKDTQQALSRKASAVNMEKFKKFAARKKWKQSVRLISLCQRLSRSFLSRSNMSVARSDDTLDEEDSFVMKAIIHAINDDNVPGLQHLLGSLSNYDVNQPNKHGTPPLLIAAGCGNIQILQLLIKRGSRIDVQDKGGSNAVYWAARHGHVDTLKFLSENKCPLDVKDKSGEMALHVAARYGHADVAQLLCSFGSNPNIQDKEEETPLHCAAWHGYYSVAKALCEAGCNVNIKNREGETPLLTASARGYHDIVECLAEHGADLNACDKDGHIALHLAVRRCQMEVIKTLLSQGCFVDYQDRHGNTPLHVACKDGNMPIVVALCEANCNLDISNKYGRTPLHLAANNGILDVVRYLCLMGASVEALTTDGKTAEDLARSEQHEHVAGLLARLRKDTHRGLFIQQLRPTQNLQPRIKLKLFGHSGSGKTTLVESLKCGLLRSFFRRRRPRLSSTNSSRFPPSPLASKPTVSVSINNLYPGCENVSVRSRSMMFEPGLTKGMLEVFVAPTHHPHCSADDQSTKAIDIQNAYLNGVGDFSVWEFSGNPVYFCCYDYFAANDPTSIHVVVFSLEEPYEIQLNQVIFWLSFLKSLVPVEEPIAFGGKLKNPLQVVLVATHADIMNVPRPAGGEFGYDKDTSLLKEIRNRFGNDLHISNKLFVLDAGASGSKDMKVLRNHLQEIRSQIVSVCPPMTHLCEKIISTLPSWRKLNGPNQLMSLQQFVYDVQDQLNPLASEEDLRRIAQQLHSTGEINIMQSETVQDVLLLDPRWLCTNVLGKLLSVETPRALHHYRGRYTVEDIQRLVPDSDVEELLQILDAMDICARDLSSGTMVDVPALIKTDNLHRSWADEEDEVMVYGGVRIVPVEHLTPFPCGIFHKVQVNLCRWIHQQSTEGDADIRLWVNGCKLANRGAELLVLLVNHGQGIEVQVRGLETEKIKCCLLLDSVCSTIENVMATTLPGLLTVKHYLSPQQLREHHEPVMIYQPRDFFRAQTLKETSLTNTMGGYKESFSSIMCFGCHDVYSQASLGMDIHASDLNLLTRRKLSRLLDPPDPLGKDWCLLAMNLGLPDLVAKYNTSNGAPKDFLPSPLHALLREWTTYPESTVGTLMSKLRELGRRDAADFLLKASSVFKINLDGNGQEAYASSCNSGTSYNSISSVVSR

As to `Cn1cc(-n2cnc3c(NCc4nc5cc(Cl)c(Cl)cc5[nH]4)nc(N4CCOCC4)nc32)cn1`, the % of inhibition in assay [1] was -19.4%; in assay [2] it was -41.1%; in [3] it was -25.5%; in [4] it was -8.74%.
In the case of `CN(C)C/C=C/C(=O)Nc1ccc(C(=O)N2CCCC(Nc3ncc(Cl)c(-c4c[nH]c5ccccc45)n3)C2)cc1` (stereo unspecified), in [5], the % of control came out at 82%.
Turning to `Cc1cc([C@@H](C)Nc2ccccc2C(=O)O)c2nc(N3CCOCC3)cc(=O)n2c1` [AZD-6482], the % of control in assay [6] stood at 98%.
On to `CN(C)CCOc1ccc(-c2nc(-c3ccncc3)c(-c3ccc4c(c3)CC/C4=N\O)[nH]2)cc1`, for which the % of control in [7] turned out to be 74%; in [8], 100%.
`N#Cc1cccc(-c2c[nH]c3ncnc(N4CCOCC4)c23)c1` came in with a % of control in assay [9] of 28%. Also, the % of inhibition in [10] was 16%.
In the case of `CC[C@@H]1[C@H](F)C(=O)N[C@@H]1COc1nccc2cc(C(N)=O)c(OC)cc12` [ZIMLOVISERTIB], in assay [11], the % of inhibition was determined as 16.2%.
For the compound `Cc1cc(F)c(C(=O)Nc2cccc(-c3nncn3C(C)C)n2)cc1-n1cnc(C2CC2)c1`, the % of control in assay [12] came to 83%.
On to `CC(=O)c1cc(-c2ccccc2OCC2CC2)c2ncccn12`, for which the % of control in assay [13] was determined as 116%.
For the compound `C=CC(=O)Nc1cc(-n2c(=O)ccc3cnc4ccc(-c5ccc(NS(C)(=O)=O)cc5)cc4c32)ccc1C`, the % of control in [14] was determined as 62%; in [15] (at 1 µM), 82%; in assay [15] (at 10 µM), 68%.
